Series [1] deals with MGC-803 cells. As to conditions: 48 h, cited from earlier work.
In series [2] the test system is HGC-27 cells. Description: MTT antiproliferative assay, HGC-27 gastric cancer cells. The series is classed as cell-based. As to conditions: MTT, exposure for 48 h. The procedure:
(§1) Furthermore, MGC-803 cells were more sensitive to the compounds than HCT-116, PC-3 cells MCF-7 cells. Moreover, we chose two other common gastric cancer cell lines (HGC-27 and SGC-7901) and another two normal cells GES-1 and HUEVC cells to examine for the inhibitory activity of compound 9i.
(§2) Cell lines used were cultured in humidified incubator in a humidified atmosphere of 5% CO2 and 95% air. The RPMI-1640 medium was supplemented with 10% foetal bovine serum, penicillin (100 U/ml) and streptomycin (0.1 mg/ml).
(§3) Cell lines were seeded into 96-well plates and incubated for 24 h. Then cells were treated with different concentrations of compounds. And after another 48 h, MTT reagent (20 μL per well) was added to each well and then incubated at 37 °C for 4 h. After the suspension was discarded, formazan was then dissolved with DMSO. Absorbencies of formazan solution were measured at 490 nm. The IC50 values of tested compounds were calculated by SPSS version 17.0.

The subject of series [3] is HUEVC cells. Description: MTT antiproliferative assay, HUEVC normal cells. Type of series: cell-based. The note with it: exposure for 48 h, non-cancer cell line. The procedure: as §1, §2, §3
In series [4] the test system is HCT-116 cells. Description: MTT antiproliferative assay, HCT-116 cells. The series is classed as cell-based, human. As to conditions: exposure for 48 h. The procedure:
(§4) The in vitro antiproliferative activities of new target compounds 6a–6g, 9a–9i, 10a–10j, 11a–11j, and 14a–14d were evaluated against four human cancer cell lines (MGC-803, PC-3, HCT-116, and MCF-7) using MTT assay and 5-FU as a positive drug. The following Tables 1–[4] depicted the results of in vitro antiproliferative activity.
as §2, §3
A general note: Tetrazolium assays rely on reduction of a dye to a coloured formazan, in cell work by metabolically active cells.

The test system of series [5] is SGC-7901 cells. In words: MTT antiproliferative assay, SGC-7901 gastric cancer cells. The series is classed as cell-based. As to conditions: exposure for 48 h. The procedure: as §1, §2, §3
In series [6] the test system is MCF-7 cells. In words: MTT antiproliferative assay, MCF-7 cells. Type of series: cell-based, human. As to conditions: exposure for 48 h. The procedure:
as §4, §2, §3

Series [7] relates to PC-3 cells. In words: MTT antiproliferative assay, PC-3 cells. Type of series: cell-based, human. The procedure: as §4, §2, §3
The subject of series [8] is GES-1 cells. In words: MTT antiproliferative assay, GES-1 normal gastric epithelial cells. Type of series: cell-based. The note with it: MTT, exposure for 48 h, non-cancer cell line.
Source text: as §1
Since compound 9i presented high potency against cancer cells and MGC-803 cells was more sensitive to compound 9i, compound 9i, MGC-803, another two gastric cancer cells SGC-7901, HGC-27, and GES-1(normal gastric epithelial cells) were used for further detection. As shown in Figures 3(A,B), compound 9i inhibited three gastric cancer cell lines in the dose and time-dependent manners. The inhibition ratios of compound 9i against three gastric cancer cells were all above 50% after 48 h in the high dosage group. Moreover, MGC-803 and SGC-7901 cell lines were more sensitive and compound 9i inhibited over 65% cell viability with high dose treatment for 48 h.
as §2, §3

Series [9] deals with MGC-803 cells. In words: MTT antiproliferative assay, MGC-803 cells. The series is classed as cell-based, human. As to conditions: exposure for 48 h. The procedure: as §4, §2, §3
The mark [10] stands for this setting: Homo sapiens, PC-3, exposure for 48 h.

The text below walks through data of article PMC8386742, “Discovery of N-aryl sulphonamide-quinazoline derivatives as anti-gastric cancer agents in vitro and in vivo via activating the Hippo signalling pathway” (Journal of Enzyme Inhibition and Medicinal Chemistry, 2021).

Read-outs that look alike come from different tables or passages of the source.

By IC50 is commonly meant the concentration that gives 50% inhibition. Usually melting point stands for the temperature, or range, at which the solid turns liquid.

`COc1cc(N(Cc2nc3ccccc3[nH]2)S(=O)(=O)c2ccc(C)cc2)cc(OC)c1OC` [Compound 2]: the IC50 in [1] (previously reported compound 2 ref 32) is 1.02 µM.
On to `O=c1[nH]cc(F)c(=O)[nH]1` [Compound 5-Fu, reference compound], for which the IC50 in [2] amounted to 4.94 µM; in [3], 18.5 µM; in series [4], 14.4 ± 1.73 µM; in series [5], 3.88 µM; in [6], 12.1 ± 1.28 µM; in series [7] (exposure for 48 h), 17.1 ± 1.42 µM. This molecule gave a half-inhibitory concentration (IC50) in [8] of 10.2 µM.
`COc1ccc(S(=O)(=O)N(Cc2ccccc2)c2cc(OC)c(OC)c(OC)c2)cc1` [Compound 9a, N-benzyl-4-methoxy-N-(3,4,5-trimethoxyphenyl) benzene-sulfonamide] came in with a melting point of 161 to 162 °C. The molecule also showed an IC50 in series [4] (Homo sapiens, HCT-116, 48 h) of 18.8 ± 1.72 µM. Besides, 8.57 ± 1.62 µM corresponded to half-maximal inhibition in series [9] (Homo sapiens, MGC-803, 48 h) (IC50). The IC50 in [6] (Homo sapiens, MCF7, 48 h) is 24.5 ± 0.61 µM. Moreover, the IC50 in series [7] (setting [10]) turned out to be 16.2 ± 1.06 µM.
On to `COc1ccc(CN(c2cc(OC)c(OC)c(OC)c2)S(=O)(=O)c2ccc(Cl)cc2)cc1` [Compound 6b, 4-Chloro-N-(4-methoxybenzyl)-N-(3,4,5-trimethoxyphenyl) benzene-sulphonamide], for which the melting point lay within 166 to 167 °C. In addition, in series [4] (Homo sapiens, HCT-116, 48 h), the IC50 was > 40 µM. In addition, in [9] (Homo sapiens, MGC-803, 48 h), the IC50 is > 40 µM. Moreover, in series [6] (Homo sapiens, MCF7, 48 h), the IC50 was > 40 µM. Besides, in series [7] (setting [10]), the IC50 is > 40 µM.
On to `COc1ccc(S(=O)(=O)N(Cc2cccnc2)c2cc(OC)c(OC)c(OC)c2)cc1` [Compound 9f, 4-Methoxy-N-(pyridin-3-ylmethyl)-N-(3,4,5-trimethoxyphenyl) benzene-sulphonamide], for which the melting point was 158 to 159 °C. In series [4] (Homo sapiens, HCT-116, 48 h), this molecule displayed an IC50 of 6.92 ± 0.79 µM. Also, inhibition in [9] (Homo sapiens, MGC-803, 48 h) was half-maximal at 1.31 ± 0.08 µM (IC50). This molecule also displayed an IC50 in series [6] (Homo sapiens, MCF7, 48 h) of 6.31 ± 1.11 µM. In series [7] (setting [10]), this molecule returned an IC50 of 11.3 ± 1.11 µM.
For `COc1cc(N(Cc2nc(C)c3ccccc3n2)C(=O)c2ccc(Br)cc2)cc(OC)c1OC` [Compound 11c, 4-Bromo-N-((4-methylquinazolin-2-yl)methyl)-N-(3,4,5-trimethoxyphenyl) benzamide], in that order: 182 to 183 °C, 20.4 ± 1.23 µM, 13.6 ± 1.24 µM, 28.1 ± 1.47 µM and 26.8 ± 1.32 µM.
In the same order, the values of `COc1ccc(CN(c2cc(OC)c(OC)c(OC)c2)S(=O)(=O)c2ccc(F)cc2)cc1` [Compound 6a, 4-Fluoro-N-(4-methoxybenzyl)-N-(3,4,5-trimethoxyphenyl) benzene-sulphonamide] are 156 to 157 °C, 16.7 ± 1.03 µM, 6.62 ± 0.82 µM, > 40 µM and 18.8 ± 0.31 µM.
`COc1cc(N(Cc2nc(C)c3ccccc3n2)S(=O)(=O)c2ccc(C(C)(C)C)cc2)cc(OC)c1OC` [Compound 10g, 4-(Tert-butyl)-N-((4-methylquinazolin-2-yl)methyl)-N-(3,4,5-trimethoxyphenyl) benzene-sulfonamide]: the melting point fell in the range of 144 to 145 °C. Moreover, the IC50 in series [4] (Homo sapiens, HCT-116, 48 h) came to 22.4 ± 1.67 µM. For the same molecule, in [9] (Homo sapiens, MGC-803, 48 h), half-maximal inhibition (IC50) required 12.8 ± 1.38 µM. This molecule also yielded an IC50 in series [6] (Homo sapiens, MCF7, 48 h) of 28.1 ± 1.82 µM. In [7] (setting [10]), the IC50 was determined as 18.9 ± 1.57 µM.
`COc1cc(C(=O)N(Cc2nc(C)c3ccccc3n2)c2cc(OC)c(OC)c(OC)c2)cc(OC)c1OC` [Compound 11i, 3,4,5-Trimethoxy-N-((4-methylquinazolin-2-yl)methyl)-N-(3,4,5-trimethoxyphenyl) benzamide] came in with a melting point of 129 to 130 °C. Besides, it took 20.4 ± 1.92 µM to reach half-maximal inhibition in series [4] (Homo sapiens, HCT-116, 48 h) (IC50). For the same molecule, in series [9] (Homo sapiens, MGC-803, 48 h), the IC50 was 16.8 ± 2.02 µM. Moreover, the IC50 in [6] (Homo sapiens, MCF7, 48 h) was > 40 µM. In series [7] (setting [10]), the IC50 is > 40 µM.
The molecule `COc1ccc(CN(c2cc(OC)c(OC)c(OC)c2)S(=O)(=O)c2ccc(OC)cc2)cc1` [Compound 6e, 4-Methoxy-N-(4-methoxybenzyl)-N-(3,4,5-trimethoxyphenyl) benzene-sulphonamide] displayed a melting point of 179 to 180 °C. In series [4] (Homo sapiens, HCT-116, 48 h), this molecule registered an IC50 of 3.48 ± 1.22 µM. This molecule also displayed an IC50 in series [9] (Homo sapiens, MGC-803, 48 h) of 2.86 ± 1.08 µM. Moreover, the IC50 in [6] (Homo sapiens, MCF7, 48 h) is 7.68 ± 1.82 µM. Moreover, the IC50 in series [7] (setting [10]) is 4.01 ± 1.67 µM.
For `COc1cc(N(Cc2nc(C)c3ccccc3n2)S(=O)(=O)c2ccccc2)cc(OC)c1OC` [Compound 10a, N-((4-methylquinazolin-2-yl)methyl)-N-(3,4,5-trimethoxyphenyl) benzene-sulphonamide], in that order: 178 to 179 °C, 16.7 ± 1.03 µM, 6.62 ± 0.82 µM, > 50 µM and 28.2 ± 2.12 µM.
On to `COc1cc(N(Cc2nc(C)c3ccccc3n2)S(=O)(=O)c2ccc(C)cc2)cc(OC)c1OC` [Compound 10e, 4-Methyl-N-((4-methylquinazolin-2-yl)methyl)-N-(3,4,5-trimethoxyphenyl) benzene-sulfonamide], for which the melting point lay in the range of 182 to 183 °C. In [4] (Homo sapiens, HCT-116, 48 h), 2.48 ± 0.12 µM corresponded to half-maximal inhibition (IC50). In series [9] (Homo sapiens, MGC-803, 48 h), it took 1.04 µM to reach half-maximal inhibition (IC50). The molecule further yielded an IC50 in series [9] of 1 ± 0.08 µM. Also, inhibition in series [6] (Homo sapiens, MCF7, 48 h) was half-maximal at 1.68 ± 0.12 µM (IC50). In series [7] (setting [10]), this molecule gave an IC50 of 4.01 ± 0.07 µM.
With `COc1ccc(CN(C(=O)CSc2nc3ccccc3[nH]2)c2cc(OC)c(OC)c(OC)c2)cc1` [Compound 1], in [1] (previously reported compound 1 ref 31), the IC50 is 1.23 µM.
Regarding `COc1cc(N(Cc2nc(C)c3ccccc3n2)S(=O)(=O)c2ccccc2Cl)cc(OC)c1OC` [Compound 10d, 2-Chloro-N-((4-methylquinazolin-2-yl)methyl)-N-(3,4,5-trimethoxyphenyl) benzene-sulfonamide], the melting point lay in the range of 183 to 184 °C. For the same molecule, the midpoint of inhibition in series [4] (Homo sapiens, HCT-116, 48 h), the IC50, lay at 18.7 ± 1.27 µM. Besides, in [9] (Homo sapiens, MGC-803, 48 h), the IC50 is > 50 µM. This molecule came in with an IC50 in series [6] (Homo sapiens, MCF7, 48 h) of 22.1 ± 0.31 µM. In [7] (setting [10]), the IC50 is > 50 µM.
As for `COc1cc(N(Cc2nc(C)c3ccccc3n2)S(=O)(=O)c2ccc(F)cc2)cc(OC)c1OC` [Compound 10b, 4-Fluoro-N-((4-methylquinazolin-2-yl)methyl)-N-(3,4,5-trimethoxyphenyl) benzene-sulfonamide], the melting point lay within 162 to 163 °C. For the same molecule, the IC50 in series [4] (Homo sapiens, HCT-116, 48 h) was determined as 3.84 ± 0.14 µM. This molecule displayed an IC50 in series [9] (Homo sapiens, MGC-803, 48 h) of 0.92 ± 1.07 µM. The molecule also returned an IC50 in [6] (Homo sapiens, MCF7, 48 h) of 5.46 ± 0.87 µM. This molecule registered an IC50 in series [7] (setting [10]) of 4.72 ± 1.02 µM.
`COc1cc(N(Cc2nc(C)c3ccccc3n2)S(=O)(=O)c2ccc(Br)cc2)cc(OC)c1OC` [Compound 10c, 4-Bromo-N-((4-methylquinazolin-2-yl)methyl)-N-(3,4,5-trimethoxyphenyl) benzene-sulfonamide] registered a melting point of 170 to 171 °C. In series [4] (Homo sapiens, HCT-116, 48 h), the IC50 turned out to be 1.49 ± 0.22 µM. In series [9] (Homo sapiens, MGC-803, 48 h), 0.82 ± 0.11 µM corresponded to half-maximal inhibition (IC50). Moreover, the midpoint of inhibition in series [6] (Homo sapiens, MCF7, 48 h), the IC50, lay at 1.4 ± 0.25 µM. In series [7] (setting [10]), this molecule had an IC50 of 1.81 ± 0.26 µM.
Turning to `COc1cc(N(Cc2nc(C)c3ccccc3n2)S(=O)(=O)c2c(C)cc(C)cc2C)cc(OC)c1OC` [Compound 10f, 2,4,6-Trimethyl-N-((4-methylquinazolin-2-yl)methyl)-N-(3,4,5-trimethoxyphenyl) benzene-sulfonamide], the melting point fell in the range of 154 to 155 °C. Besides, the IC50 in series [4] (Homo sapiens, HCT-116, 48 h) was > 50 µM. Further, the IC50 in series [9] (Homo sapiens, MGC-803, 48 h) was > 50 µM. Besides, the IC50 in [6] (Homo sapiens, MCF7, 48 h) is > 50 µM. Moreover, the IC50 in series [7] (setting [10]) is > 50 µM.
